Experimental data: ChEMBL document CHEMBL1201862, “PubChem BioAssay data set” (2004)
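Protocol summary: plate cells (96-well), add compound at 5 concentrations, incubate 48 h, interpolate endpoints linearly. GI50 = concentration required for 50% inhibition of growth.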 Active and inactive are the calls of the source. Cut-off read from the data, not from the text of the source: active = GI50 up to about 1.1 µM and inactive = higher.

Columns and labels:
Assay in all cases: NCI-60 cell line screen, 48 h
A498 = test system: A498
ACHN = test system: ACHN
HCT-15 = test system: HCT-15
Hs-578T = test system: Hs-578T
LOX IMVI = test system: LOX IMVI
M14 = test system: M14
MCF7 = test system: MCF7
MDA-MB-231 = test system: MDA-MB-231
NCI/ADR-RES = test system: NCI/ADR-RES
SK-OV-3 = test system: SK-OV-3
SR = test system: SR
TK-10 = test system: TK-10
DLD-1 = test system: DLD-1
DMS-114 = test system: DMS-114
DMS-273 = test system: DMS-273
HCC 2998 = test system: HCC 2998
HOP-18 = test system: HOP-18
KM-20L2 = test system: KM-20L2
M19-MEL = test system: M19-MEL
SNB-78 = test system: SNB-78

Row | SMILES | GI50 (A498) | GI50 (ACHN) | GI50 (HCT-15) [µM] | GI50 (Hs-578T) | GI50 (LOX IMVI) | GI50 (M14) | GI50 (MCF7) | GI50 (MDA-MB-231) | GI50 (NCI/ADR-RES) | GI50 (SK-OV-3) | GI50 (SR) | GI50 (TK-10) | GI50 (DLD-1) | GI50 (DMS-114) | GI50 (DMS-273) | GI50 (HCC 2998) | GI50 (HOP-18) | GI50 (KM-20L2) | GI50 (M19-MEL) | GI50 (SNB-78)
1 | CCCCN1CN2C(=O)C(C(=O)OCC)C(=O)c3sc4nc(SC)nc1c4c32 (stereo not drawn) | 1.53 µM (inactive) | 17 µM (inactive) | 20 | < 0.01 µM (active) | 20.5 µM (inactive) | 22.4 µM (inactive) | 21 µM (inactive) | 17.9 µM (inactive) | 19 µM (inactive) | 17.6 µM (inactive) | 33.1 µM (inactive) | 14.9 µM (inactive) |  |  |  |  |  |  |  | 
2 | O=NN(CCCl)C(=O)N[C@H]1CC[C@@H](O)CC1 | > 100 µM (inactive) |  | 21.6 |  | 26.1 µM (inactive) |  | 31.6 µM (inactive) |  | 23.3 µM (inactive) | > 100 µM (inactive) |  |  | 24.6 µM (inactive) | 20.7 µM (inactive) | 34.8 µM (inactive) | 81.5 µM (inactive) | 35.2 µM (inactive) | > 100 µM (inactive) | 27.9 µM (inactive) | 24.7 µM (inactive)
3 | CCOC(=O)C1=C(C)N2CCCOC2(C)C(C(=O)OC)C1c1cccc([N+](=O)[O-])c1 (stereo not drawn) |  | 71.6 µM (inactive) |  |  |  | > 100 µM (inactive) |  |  |  |  | 35.2 µM (inactive) | > 100 µM (inactive) |  | 44.8 µM (inactive) |  | > 100 µM (inactive) |  | > 100 µM (inactive) | > 100 µM (inactive) | 
4 | COc1cccc(N2C(Cl)C(=O)C2c2c[nH]c3ccccc23)c1 (stereo not drawn) |  |  |  |  |  | > 100 µM (inactive) |  |  |  | > 100 µM (inactive) | > 100 µM (inactive) | > 100 µM (inactive) |  | > 100 µM (inactive) |  |  |  | > 100 µM (inactive) | > 100 µM (inactive) | 
5 | CCOC(=O)Cn1c(=O)c(C)cn(COCCO)c1=O | > 100 µM (inactive) | > 100 µM (inactive) |  | > 100 µM (inactive) | > 100 µM (inactive) | > 100 µM (inactive) | > 100 µM (inactive) | > 100 µM (inactive) | > 100 µM (inactive) |  |  | > 100 µM (inactive) |  |  |  | > 100 µM (inactive) |  |  |  | 
6 | CCN1CCCC(NCc2c3ccccc3c(CNC3CCCN(CC)C3)c3ccccc23)C1 (stereo not drawn) | 12.6 µM (inactive) |  | 12.5 |  | 6.37 µM (inactive) |  | 2.86 µM (inactive) |  | 25 µM (inactive) | 10.1 µM (inactive) |  |  | 12.8 µM (inactive) | 4.99 µM (inactive) | 5.56 µM (inactive) | 13.1 µM (inactive) | 5.92 µM (inactive) | 3.76 µM (inactive) | 7.45 µM (inactive) | 22.3 µM (inactive)
7 | CCCCCCCCCCCCCCCCSCC(COC)COP(=O)([O-])OCC[N+](C)(C)C (stereo not drawn) [ILMOFOSINE] | 6.31 µM (inactive) |  | 2.88 |  | 5.41 µM (inactive) |  | 13.2 µM (inactive) |  | 16.5 µM (inactive) | 15.2 µM (inactive) |  |  | 3.03 µM (inactive) | 7.5 µM (inactive) | 1.85 µM (inactive) | 1.52 µM (inactive) | 4.12 µM (inactive) |  | 2.79 µM (inactive) | 10.2 µM (inactive)
